Test results published in US20230339939A1 (Bayer Aktiengesellschaft, priority 2020, published 2023).
pIC50: −log10 of the molar value. Like-named read-outs stand apart in the source and are kept apart here.

How the values were obtained:
CSNK1A1 = CSNK1A1 (Homo sapiens (Human), UniProt P48729); test: CSNK1A1 High ATP Assay (ADP-Glo, 1 mM ATP); format: biochemical; details: median, read-out: CSNK1A1 high ATP assay IC50 [mol/l] (median)
Procedure: CSNK1A1-inhibitory activity of compounds of the present invention in presence of 1 mM adenosine-tri-phosphate (ATP) was quantified employing the CSNK1A1-high-ATP-assay as described in the following paragraphs. In essence, the enzyme activity is measured by quantification of the adenosine-di-phosphate (ADP), which is generated as a co-product of the enzyme reaction, via the “ADP-Glo™ Kinase Assay” kit from the company Promega. This detection system works as follows: In a first step the ATP not consumed in the kinase reaction is quantitatively converted to cAMP employing an adenylate cyclase (“ADP-Glo-reagent”), then the adenylate cyclase is stopped and the ADP generated in the kinase reaction converted to ATP which generates in a luciferase-based reaction a glow-luminescence signal (“Kinase Detection Reagent”).
Recombinant fusion protein of N-terminal Glutathion-S-Transferase (GST) and full-length human CSNK1A1, expressed by baculovirus infected insect cells and purified via Glutathion affinity chromatography, was purchased from Life Technologies (product no. PV4174) and used as enzyme. As substrate for the kinase reaction the biotinylated peptide biotin-Ahx-KRRRAL-pS-VASLPGL (C-terminus in amide form) was used which can be purchased e.g. from the company Biosyntan (Berlin-Buch, Germany).
For the assay 50 nl of a 100 fold concentrated solution of the test compound in DMSO was pipetted into a white low volume 384-well microtiter plate (Greiner Bio-One, Frickenhausen, Germany), 2 μL of a solution of CSNK1A1 in aqueous assay buffer [50 mM HEPES pH 7.5, 10% (v/v) glycerol, 10 mM MgCl2, 50 mM NaCl, 1 mM dithiothreitol, 0.01% (w/v) bovine serum albumin, 0.01% (v/v) Triton X-100] were added and the mixture was incubated for 15 min at 22° C. to allow pre-binding of the test compounds to the enzyme before the start of the kinase reaction. […] The concentration of CSNK1A1 was adjusted depending of the activity of the enzyme lot and was chosen appropriate to have the assay in the linear range, a typical concentration is about 0.4 ng/μL. The reaction was stopped by the addition of 2.5 μL of “ADP-Glo-reagent” (1:1.5 fold diluted with water) and the resulting mixture was incubated at 22° C. for 1 h to convert the ATP not consumed in the kinase reaction completely […]. Subsequently 2.5 μL of the “kinase detection reagent” (1.2 fold more concentrated than recommended by the producer) were added, the resulting mixture was incubated at 22° C. for 1 h and then the luminescence measured with a suitable measurement instrument (e.g. Viewlux™ from Perkin-Elmer). The amount of emitted light was taken as a measure for the amount of ADP generated and thereby for the activity of the CSNK1A1.

[1] = target: wild-type Epidermal Growth Factor Receptor (EGFR) (Homo sapiens (Human), UniProt P00533); test: WT-EGFR Kinase Assay (TR-FRET, 2 mM ATP); format: biochemical
wild-type Epidermal Growth Factor Receptor (EGFR), sequence (P00533 669-1210): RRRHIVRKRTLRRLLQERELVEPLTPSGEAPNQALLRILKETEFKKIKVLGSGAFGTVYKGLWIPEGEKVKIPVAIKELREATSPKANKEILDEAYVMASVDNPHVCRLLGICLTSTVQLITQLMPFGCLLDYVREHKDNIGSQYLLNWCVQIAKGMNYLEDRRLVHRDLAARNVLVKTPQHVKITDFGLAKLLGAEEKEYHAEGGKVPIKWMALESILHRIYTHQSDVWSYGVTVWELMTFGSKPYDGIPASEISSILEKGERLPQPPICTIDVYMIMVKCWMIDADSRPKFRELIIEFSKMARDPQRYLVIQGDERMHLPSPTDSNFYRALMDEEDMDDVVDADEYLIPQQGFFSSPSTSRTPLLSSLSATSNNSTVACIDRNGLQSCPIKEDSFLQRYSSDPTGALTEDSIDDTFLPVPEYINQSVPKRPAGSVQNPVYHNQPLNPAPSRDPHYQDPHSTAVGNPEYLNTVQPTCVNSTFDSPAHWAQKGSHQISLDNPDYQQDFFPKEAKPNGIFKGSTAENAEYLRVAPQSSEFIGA
Source text: Inhibitory activity of compounds of the present invention against wild-type Epidermal Growth Factor Receptor (EGFR) was quantified employing the TR-FRET based EGFR assay as described in the following paragraphs.
Recombinant fusion protein of N-terminal Glutathion-S-Transferase (GST) and a fragment of human EGFR (amino acids R669 to A1210), expressed in Sf9 insect cells and purified via affinity chromatography using Glutathion Sepharose as described above, was used as kinase. As substrate for the kinase reaction the biotinylated peptide biotin-Ahx-[…] (C-terminus in amide form) was used which can be purchased e.g. form the company Biosynthan GmbH (Berlin-Buch, Germany).
For the assay 50 nl of a 100 fold concentrated solution of the test compound in DMSO was pipetted into either a black low volume 384 well microtiter plate or a black 1536 well microtiter plate (both Greiner Bio-One, Frickenhausen, Germany), 2 μL of a solution of EGFR in aqueous assay buffer [50 mM Hepes pH 7.0, 10 mM MgCl2, 1 mM dithiothreitol, 0.5 mM EGTA, 0.3 mM activated sodium ortho-vanadate, 0.005% (w/v) bovine serum albumin, 0.005% (v/v) Tween-20] were added and the mixture was incubated for 15 min at 22° C. to allow pre-binding of the test compounds to the enzyme before the start of the kinase reaction. […] The concentration of EGFR was adjusted depending of the activity of the enzyme lot and was chosen appropriate to have the assay in the linear range, typical concentration was 7.6 pg/μL. The reaction was stopped by the addition of 3 μL of a solution of HTRF detection reagents (83.3 nM streptavidine-XL665 [Cisbio Bioassays, Codolet, France] and 1.67 nM PT66-Tb-Cryptate, a terbium-cryptate labelled anti-phospho-tyrosine antibody from Cisbio Bioassays [instead of the PT66-Tb-cryptate PT66-Eu-Chelate from Perkin Elmer can also be used]) in an aqueous EDTA-solution (133.3 mM EDTA, 0.2% (w/v) bovine serum albumin in 50 mM HEPES pH 7.5).
The resulting mixture was incubated 1 h at 22° C. to allow the binding of the biotinylated phosphorylated peptide to the streptavidine-XL665 and the PT66-Tb-Cryptate. Subsequently the amount of phosphorylated substrate was evaluated by measurement of the resonance energy transfer from the PT66-Tb-Cryptate to the streptavidine-XL665. Therefore, the fluorescence emissions at 620 nm and 665 nm after excitation at 337 nm were measured in a HTRF reader, e.g. a Pherastar (BMG Labtechnologies, Offenburg, Germany) or a Viewlux (Perkin-Elmer). The ratio of the emissions at 665 nm and at 622 nm was taken as the measure for the amount of phosphorylated substrate.

[2] = read-out: EGFR Wildtype 2 mM ATP IC50 [mol/l] (median)

CSNK1A1, sequence (P48729 whole entry): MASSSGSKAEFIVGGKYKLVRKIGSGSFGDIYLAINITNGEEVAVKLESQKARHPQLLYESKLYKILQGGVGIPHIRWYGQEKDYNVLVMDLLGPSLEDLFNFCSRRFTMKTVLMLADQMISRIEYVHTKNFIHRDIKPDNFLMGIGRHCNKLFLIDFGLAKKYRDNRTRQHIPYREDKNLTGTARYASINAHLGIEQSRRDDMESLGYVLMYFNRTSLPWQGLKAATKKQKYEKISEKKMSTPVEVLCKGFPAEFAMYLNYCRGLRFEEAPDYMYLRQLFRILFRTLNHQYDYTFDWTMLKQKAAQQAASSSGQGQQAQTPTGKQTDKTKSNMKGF

| Structure (SMILES) | pIC50 (CSNK1A1) | pIC50 ([1]; median) | pIC50 [1, 2] |
| --- | --- | --- | --- |
| COCC(C(=O)Nc1cc(-c2[nH]c3cc(F)cnc3c2-c2ccccn2)ccn1)c1ccc(F)cc1 (racemic) [Example 45, (2RS)-2-(4-fluorophenyl)-N-[4-[6-fluoro-3-(2-pyridyl)-1H-pyrrolo[3,2-b]pyridin-2-yl]-2-pyridyl]-3-methoxy-propanamide] | 7.41 | < 4.70 |  |
| CC(C(=O)Nc1cc(-c2[nH]c3cc(Cl)cnc3c2-c2ccccn2)ccn1)c1ccc(F)cc1 (stereo not drawn) [Example 52, N-{4-[6-chloro-3-(pyridin-2-yl)-1H-pyrrolo[3,2-b]pyridin-2-yl]pyridin-2-yl}-2-(4-fluorophenyl)propanamide] | 6.42 |  | < 4.70 |
| O=C(Cc1ccc(F)cc1)Nc1cc(-c2[nH]c3c(N4CCCC4=O)ccnc3c2-c2ccccn2)ccn1 [Example 40, 2-(4-fluorophenyl)-N-{4-[7-(2-oxopyrrolidin-1-yl)-3-(pyridin-2-yl)-1H-pyrrolo[3,2-b]pyridin-2-yl]pyridin-2-yl}acetamide] | 7.52 |  | < 4.70 |
| CC(C(=O)Nc1cc(-c2[nH]c3cccnc3c2-c2ccccc2)ccn1)c1ccc(F)cc1 (racemic) [Example 11, 2-(4-fluorophenyl)-N-[4-(3-phenyl-1H-pyrrolo[3,2-b]pyridin-2-yl)pyridin-2-yl]propanamide] | 6.49 | < 4.70 |  |
| CC(C(=O)Nc1cc(-c2[nH]c3ccc(F)nc3c2-c2ccccn2)ccn1)c1ccc(F)cc1 (single isomer, unassigned; (-)) [Example 2, (−)-2-(4-fluorophenyl)-N-{4-[5-fluoro-3-(pyridin-2-yl)-1H-pyrrolo[3,2-b]pyridin-2-yl]pyridin-2-yl}propanamide] | 6.05 | < 4.70 |  |
| Cc1cc2[nH]c(-c3ccnc(NC(=O)C(C)c4ccc(F)cc4)c3)c(-c3ccccn3)c2nc1F (single isomer, unassigned; (-)) [Example 30, (−)-N-{4-[5-fluoro-6-methyl-3-(pyridin-2-yl)-1H-pyrrolo[3,2-b]pyridin-2-yl]pyridin-2-yl}-2-(4-fluorophenyl)propanamide] | 7.63 |  | < 4.70 |
| O=C(Cc1ccc(F)cc1)Nc1cc(-c2[nH]c3cccnc3c2-c2cccc(F)c2)ccn1 [Example 15, 2-(4-fluorophenyl)-N-{4-[3-(3-fluorophenyl)-1H-pyrrolo[3,2-b]pyridin-2-yl]pyridin-2-yl}acetamide] | 7.06 |  | < 4.70 |
| CC(C(=O)Nc1cc(-c2[nH]c3ccc(F)nc3c2-c2ccccn2)ccn1)c1ccc(F)cc1 (single isomer, unassigned; (+)) [Example 3, (+)-2-(4-fluorophenyl)-N-{4-[5-fluoro-3-(pyridin-2-yl)-1H-pyrrolo[3,2-b]pyridin-2-yl]pyridin-2-yl}propanamide] | 7.92 |  | < 4.70 |
| Cc1cc2[nH]c(-c3ccnc(NC(=O)C(C)c4ccc(F)cc4)c3)c(-c3ccccn3)c2nc1F (racemic) [Example 28, N-{4-[5-fluoro-6-methyl-3-(pyridin-2-yl)-1H-pyrrolo[3,2-b]pyridin-2-yl]pyridin-2-yl}-2-(4-fluorophenyl)propanamide] | 7.23 | < 4.70 |  |
| CC(C)C(C(=O)Nc1cc(-c2[nH]c3ccc(F)nc3c2-c2ccccn2)ccn1)c1ccc(F)cc1 (single isomer, unassigned; (-)) [Example 25, (−)-2-(4-fluorophenyl)-N-{4-[5-fluoro-3-(pyridin-2-yl)-1H-pyrrolo[3,2-b]pyridin-2-yl]pyridin-2-yl}-3-methylbutanamide] | 5.63 | < 4.70 |  |
| O=C(Cc1ccc(F)cc1)Nc1cc(-c2[nH]c3cccnc3c2-c2ccccn2)ccn1 [Example 5, 2-(4-fluorophenyl)-N-{4-[3-(pyridin-2-yl)-1H-pyrrolo[3,2-b]pyridin-2-yl]pyridin-2-yl}acetamide] | 8.21 |  | < 4.70 |
| O=C(Cc1ccccc1)Nc1cc(-c2[nH]c3cccnc3c2-c2ccccn2)ccn1 [Example 46, 2-phenyl-N-(4-(3-(pyridin-2-yl)-1H-pyrrolo[3,2-b]pyridin-2-yl)pyridin-2-yl)acetamide] | 7.84 |  | < 4.70 |
| Cc1cc2[nH]c(-c3ccnc(NC(=O)Cc4ccc(F)cc4)c3)c(-c3ccccn3)c2nc1F [Example 27, N-{4-[5-fluoro-6-methyl-3-(pyridin-2-yl)-1H-pyrrolo[3,2-b]pyridin-2-yl]pyridin-2-yl}-2-(4-fluorophenyl)acetamide] | 7.95 |  | < 4.70 |
| O=C(Cc1ccc(F)cc1)Nc1cc(-c2[nH]c3cccnc3c2-c2ccccc2)ccn1 [Example 14, 2-(4-fluorophenyl)-N-[4-(3-phenyl-1H-pyrrolo[3,2-b]pyridin-2-yl)pyridin-2-yl]acetamide] | 7.34 | < 4.70 | 4.72 |
| Cc1cc2[nH]c(-c3ccnc(NC(=O)C(C)c4ccc(F)cc4)c3)c(-c3ccccn3)c2nc1F (single isomer, unassigned; (+)) [Example 29, (+)-N-{4-[5-fluoro-6-methyl-3-(pyridin-2-yl)-1H-pyrrolo[3,2-b]pyridin-2-yl]pyridin-2-yl}-2-(4-fluorophenyl)propanamide] | 5.94 | < 4.70 |  |
| C=Cc1ccnc2c(-c3ccccn3)c(-c3ccnc(NC(=O)Cc4ccc(F)cc4)c3)[nH]c12 [Example 33, N-{4-[7-ethenyl-3-(pyridin-2-yl)-1H-pyrrolo[3,2-b]pyridin-2-yl]pyridin-2-yl}-2-(4-fluorophenyl)acetamide] | 7.54 |  | 4.82 |
| O=C(Cc1ccc(F)cc1)Nc1cc(-c2[nH]c3cccnc3c2-c2ccc(Cl)s2)ccn1 [Example 17, N-{4-[3-(5-chlorothiophen-2-yl)-1H-pyrrolo[3,2-b]pyridin-2-yl]pyridin-2-yl}-2-(4-fluorophenyl)acetamide] | 7.06 |  | < 4.70 |
| CN1CCN(c2ccnc3c(-c4ccccn4)c(-c4ccnc(NC(=O)Cc5ccc(F)cc5)c4)[nH]c23)CC1 [Example 38, 2-(4-fluorophenyl)-N-{4-[7-(4-methylpiperazin-1-yl)-3-(pyridin-2-yl)-1H-pyrrolo[3,2-b]pyridin-2-yl]pyridin-2-yl}acetamide] | 7.70 |  | < 4.70 |
| CCc1ccnc2c(-c3ccccn3)c(-c3ccnc(NC(=O)Cc4ccc(F)cc4)c3)[nH]c12 [Example 34, N-{4-[7-ethyl-3-(pyridin-2-yl)-1H-pyrrolo[3,2-b]pyridin-2-yl]pyridin-2-yl}-2-(4-fluorophenyl)acetamide] | 7.87 |  | < 4.70 |
